Values after ≈ are worked out from the molar mass of the structure shown. Read-outs that look alike come from different tables or passages of the source. Some results are limits rather than exact numbers.

A word on the IC50: it is the concentration that inhibits the measured activity by half. As usually defined, the MIC is the smallest concentration in the dilution series that meets the test's criterion for growth inhibition. High values mean a less susceptible organism, low ones a more susceptible organism. As a reminder, the melting point is the temperature, or range, at which the solid turns liquid.

For one data set, the system named is Micrococcus luteus. Briefly: Microtiter Broth Dilution antibacterial assay. Type of data set: cell-based. Conditions: for antibacterial effect (in words): M. luteus; for MIC: Micrococcus luteus, 24 h. On the procedure:
(§1) The Microtiter Broth Dilution Method on gram negative (Escherichia coli) and gram positive (Micrococcus luteus) bacteria was used. Meroterpenes dissolved in DMSO were added to bacteria suspensions (5:100 v:v) for 24 hours. The assay was carried out in triplicate. Bacterial growth was evaluated by absorbance measurement (630 nm). The minimum concentration that inhibits (MIC) bacterial growth was determined for each compound on each bacterial strain.
(§2) The antibacterial assay used was based on the previously described method published by the […].

In the next data set the test system is Escherichia coli. Briefly: Microtiter Broth Dilution antibacterial assay. To be noted: for antibacterial effect (in words): E. coli. Type of data set: cell-based. On the procedure: as §1, §2
In general terms: In broth dilution the organism is exposed to a series of concentrations in liquid medium.

The test system of data set [1] is Paracentrotus lividus eggs. The data set is described as follows: Inhibition of sea urchin egg division. Type of data set: cell-based. On the procedure: (§3) For cytotoxic assays on sea urchins, meroterpenes were dissolved in an egg suspension (described in the experimental section), and their ability to inhibit 50% of cell division (IC50) was estimated. Each experiment was carried out in triplicate and an average taken.
(§4) For antiproliferative assays on sea urchin eggs, we used a previously described method.

Data set [2] concerns Sphaerechinus granularis eggs. The data set is described as follows: Inhibition of sea urchin egg division. Conditions: for IC50: read-out: IC50 S. granularis. Type of data set: cell-based. On the procedure:
as §3, §4

Data set [3] concerns MCF7 breast adenocarcinoma cells. The data set is described as follows: Resazurin reduction test (RRT) cytotoxicity. Type of data set: cell-based, human. To be noted: for IC50: Homo sapiens. On the procedure: (§5) To provide information on their antiproliferative activity against solid cancers, the six meroterpenes were tested on three human carcinoma cell lines corresponding to cancers commonly observed in Western countries: MCF7 (breast), PA1 (ovary) and PC3 (prostate). To obtain additional information on their specificity for human cell lines and their specificity for cancer versus normal cell lines, each compound was tested versus L-929 murine immortalized cells and human normal fibroblasts. To mimic what happens in vivo, assays were carried out on exponentially growing cells cultured in the presence of 10% serum. The growth inhibitory effect was determined by measuring, after a 48 hour exposure to each chemical, the metabolic activity of treated and control cultures using the resazurin reduction test (RRT), which measures the amount of fluorescent resofurin produced by living cells. […] A dose-dependent inhibition of cell proliferation was only observed for epiconicol (3a). […] The toxicity of epiconicol observed in our model is in agreement with data obtained by Caroll and co-workers on a panel of cancer cells.
(§6) Human primary fibroblasts were purchased from Biopredic International (Rennes, France). Immortalized murine L929 cells and human MCF7 breast adenocarcinoma, PA1 ovary teratocarcinoma and PC3 androgen-resistant prostate carcinoma cells were obtained from the European Collection of Cell Cultures (ECACC, Salibury, UK). All were cultured at 37 °C under 5% CO2 and maintained in Eagle’s minimum essential medium (Gibco-BRL, Paisley, Scotland) supplemented with 10% fetal calf serum, vitamins and antibiotics (Gibco™, Cergy-Pontoise, France) as described previously.
(§7) The cytotoxicity of each treatment was determined after a 48 h exposure to each chemical (6 concentrations in triplicate, each in DMSO 0.5%) by means of the resazurin reduction test (RRT) that measures the amount of fluorescent resorufin produced by living cells. Assays were carried out at 530/590 nm accordingly to the procedure described by Barthomeuf et al.. IC50 values (mean ± S.D.) were calculated with the ALLFIT program and were expressed in μM.
Background: Alamar Blue is a resazurin reagent that responds to reducing activity.

For data set [4], the system named is PA1 ovary teratocarcinoma cells. The data set is described as follows: Resazurin reduction test (RRT) cytotoxicity. In kind it is cell-based, human. Conditions: for IC50: Homo sapiens. On the procedure:
as §5, §6, §7

Data set [5] concerns MCF7, PA1, PC3, L-929 cells and human normal fibroblasts. Briefly: Resazurin reduction test (RRT) cytotoxicity, whole panel of cell lines. Conditions: span over the cell lines, 48 hour exposure, read-out: IC50, varied with the cell lines. In kind it is cell-based. On the procedure:
To provide information on their antiproliferative activity against solid cancers, the six meroterpenes were tested on three human carcinoma cell lines corresponding to cancers commonly observed in Western countries: MCF7 (breast), PA1 (ovary) and PC3 (prostate). To obtain additional information on their specificity for human cell lines and their specificity for cancer versus normal cell lines, each compound was tested versus L-929 murine immortalized cells and human normal fibroblasts. To mimic what happens in vivo, assays were carried out on exponentially growing cells cultured in the presence of 10% serum. The growth inhibitory effect was determined by measuring, after a 48 hour exposure to each chemical, the metabolic activity of treated and control cultures using the resazurin reduction test (RRT), which measures the amount of fluorescent resofurin produced by living cells. […] A dose-dependent inhibition of cell proliferation was only observed for epiconicol (3a). […]
The cytotoxicity of each treatment was determined after a 48 h exposure to each chemical (6 concentrations in triplicate, each in DMSO 0.5%) by means of the resazurin reduction test (RRT) that measures the amount of fluorescent resorufin produced by living cells. […] IC50 values (mean ± S.D.) were calculated with the ALLFIT program and were expressed in μM.

For data set [6], the system named is L-929 murine immortalized cells. Briefly: Resazurin reduction test (RRT) cytotoxicity. In kind it is cell-based. To be noted: Mus musculus. On the procedure:
as §5, §6, §7

The test system of a further data set is human normal fibroblasts. Briefly: Resazurin reduction test (RRT) cytotoxicity. In kind it is cell-based. Conditions: Fibroblast. On the procedure:
as §5, §6, §7

The test system of data set [7] is PC3 androgen-resistant prostate carcinoma cells. The data set is described as follows: Resazurin reduction test (RRT) cytotoxicity. In kind it is cell-based. Conditions: Homo sapiens. On the procedure:
as §5, §6, §7

The subject of a further data set is S.s granularis eggs. The data set is described as follows: HPLC analysis of cytoplasmic extracts of treated sea urchin eggs. In kind it is in vitro ADME, Sphaerechinus granularis. To be noted: eggs treated with 5 μM. On the procedure: To test the latter hypothesis, S.s granularis eggs were treated with 5 μM of methoxyconidiol, a concentration that inhibits their division. Sea urchin eggs were incubated 1, 40 and 90 minutes post-fertilization (p.f.) in the presence of methoxyconidiol. Cytoplasmic extracts of treated and control eggs were further prepared. Organic extracts of the cytoplasmic preparations were finally obtained and analyzed by HPLC (Figure 3).
Figure 3 HPLC analysis of methoxyconidiol (System WATERS, column: synergy 4 μm RP max; elution water: methanol under a gradient; UV detection 285 nm; flow: 0.3 mL/min) A: control compound (methoxyconidiol) B: analysis after Solid Phase Extraction at 1, 40 and 90 minutes after fertilization (min p.f.).
Preparation of cytoplasmic extracts was based on the technique described by Collas and Poccia. Gametes of P. lividus were collected in two separate beakers. Sperm was maintained undiluted on ice and eggs were stored at 19 °C until use. Sperm was diluted to 10% in Filtered Sea Water (FSW) and eggs were at 26 eggs/μL in FSW. […]
Cytoplasmic extracts of treated and control eggs were extracted with CH3OH and CH2Cl2 and analyzed by HPLC. […] This fraction was analyzed in HPLC (column: Phenomenex synergy 4μ max RP; elution with water and methanol under gradient, starting from 30% to 0% of water during 15 minutes; flow: 0.3 mL/min; detection photodiode array, UV at 285 nm).

The next data set relates to sea urchin embryos. Details: method as in PMID 17448456. Conditions: cited from earlier work.
The next data set has as its system Micrococus luteus. Details: method as in PMID 17448456. Conditions: cited from earlier work.
A further data set concerns Streptococcus faecalis. Details: method as in PMID 3404153, PMID 7608321. To be noted: cited from earlier work.
In another data set the test system is Staphyclococcus aureus. Details: method as in PMID 3404153, PMID 7608321. Conditions: cited from earlier work.
The mark [8] stands for this setting: Paracentrotus lividus, 85 min, read-out: IC50 P. lividus, egg division, 85 minutes after fertilization.
[9] abbreviates: Sphaerechinus granularis, 85 min.

On to `COc1ccc2c(c1)[C@H]1C=C(C)CC[C@H]1C(C)(C)O2` (relative stereo) [3b], for which the “antibacterial effect (in words)” value with Micrococcus luteus and with Escherichia coli was “totally inactive” in each case. Further, the IC50 in [1] (setting [8]) and in data set [2] (setting [9]) was greater than 25 µM in each case.
On to `COc1ccc(O)c([C@@H]2C=C(C)CC[C@@H]2C(C)(C)OC)c1` (relative stereo) [5b], for which the IC50 was greater than 25 µM in [1] (Paracentrotus lividus, 85 min, egg division, 85 minutes after fertilization, read-out: IC50 P. lividus) and greater than 25 µM in [2] (Sphaerechinus granularis, 85 min, egg division, 85 minutes after fertilization).
As for `CC1=C[C@@H]2c3cc(O)ccc3OC(C)(C)[C@@H]2CC1` [3a, epiconicol], the “antibacterial effect (in words)” value with Micrococcus luteus and in the data set with Escherichia coli was “weakly active” each time. The MIC worked out at 100 µM (≈ 24.4 µg/mL) against Micrococcus luteus and 800 µM (≈ 195 µg/mL) in the data set on Escherichia coli (Escherichia coli, 24 h). The cultures killed was determined as 30% in data set [3] (MCF7, at 5 μM) and 30% in data set [4] (PA1, at 5 μM). Further, the IC50 in data set [2] (setting [9]) is 9.8 ± 1.3 µM; in data set [5], 37 to 69 µM.
For the compound `Cc1ccc2c(c1)-c1cc(O)ccc1OC2(C)C` [4a, didehydroconicol], the “antibacterial effect (in words)” value in the data set on Micrococcus luteus is reported as “weakly active”. In the data set on Micrococcus luteus, this compound showed an MIC of 500 µM (≈ 120 µg/mL). Moreover, the IC50 in data set [6] (L929, 48 h) was greater than 100 µM; in the data set with human normal fibroblasts (Homo sapiens, 48 h) it was greater than 100 µM; in data set [7] (48 h) it was greater than 100 µM; in [3] (MCF7, 48 h) it was greater than 100 µM; in data set [4] (48 h) it was greater than 100 µM; in data set [1] (setting [8]), 11.3 ± 0.8 µM. Also, the IC50 in data set [2] (setting [9]) is greater than 25 µM. For the same compound, the “activity on egg division (in words)” value in [2] (S. granularis eggs) is “inactive”.
For the compound `COc1ccc2c(c1)-c1cc(C)ccc1C(C)(C)O2` [4b, O-methyldidehydroconicol], the “antibacterial effect (in words)” value in the data set with Micrococcus luteus and in the data set with Escherichia coli was “totally inactive” in each case. Moreover, the IC50 in data set [1] (setting [8]) and in data set [2] (setting [9]) was greater than 25 µM each time.
With `COC(C)(C)[C@H]1CCC(C)=C[C@H]1c1cc(O)ccc1O` [5a, methoxyconidiol], the melting point is 197 °C. In data set [6] (L929, L-929, 48 hour exposure, 10% serum, RRT, read-out: IC50), the IC50 was greater than 100 µM. The IC50 in the data set on human normal fibroblasts (human normal fibroblasts, 48 hour exposure, 10% serum, RRT, read-out: IC50) is greater than 100 µM. The IC50 in data set [7] (PC3, 48 hour exposure, 10% serum, RRT, read-out: IC50) is greater than 100 µM. In the data set with S.s granularis eggs (1, 40 and 90 minutes post-fertilization, HPLC), the “level of the compound in cytoplasmic extracts during incubation” value is given as “did not decrease significantly”. Further, in the data set with S.s granularis eggs (presence in the cytoplasm), the “penetration through sea urchin cell membranes” value was “penetrates through sea urchin cell membranes”. Moreover, the IC50 in data set [3] (MCF7, 48 hour exposure, 10% serum, RRT, read-out: IC50) was greater than 100 µM. For the same compound, the IC50 in [4] (PA1, 48 hour exposure, 10% serum, RRT, read-out: IC50) is greater than 100 µM. Further, the “effect on sea urchin embryos during cell division” value in the data set on sea urchin embryos is reported as “disturbs mitotic spindle assembly leading to a cell cycle arrest during metaphase/anaphase transition”. Further, the IC50 in [1] (egg division, 85 minutes after fertilization, listed as methoxyconidiol, read-out: IC50 P. lividus) stood at 0.8 µM. The IC50 in [1] (egg division, 85 minutes after fertilization, read-out: IC50 P. lividus) came to 4.3 ± 0.1 µM. For the same compound, in [2] (egg division, 85 minutes after fertilization, listed as methoxyconidiol), the IC50 came out at 4.3 µM. Further, the IC50 in data set [2] (egg division, 85 minutes after fertilization) came to 0.8 µM.
With `CC(C)=CCCC1(C)C=Cc2cc(O)ccc2O1` (centres unmarked) [cordiachromene A], the “growth inhibition (in words)” value in the data set with Micrococus luteus, with Streptococcus faecalis and in the data set with Staphyclococcus aureus was “moderately inhibits” throughout.
